Assay results taken from patent publication US20210261512A1, “NOVEL COMPOUNDS” (INFLAZOME LIMITED, priority 2018, published 2021).
pIC50: −log10 of the molar value.

Assays:
NLRP3 inflammasome = details: previously characterised weak NLRP3 inhibitors; nonspecific; cited from earlier work
NLRP3 = NLRP3 (Homo sapiens, UniProt Q96P20); test: THP-1 cells pyroptosis assay; assay type: cell-based; parameters: Seed THP-1 cells (25,000 cells/well) containing 1.0 μg/ml LPS; host or cells: THP-1; details: LPS 1.0 μg/ml, nigericin 5 μM, resazurin readout, 10 μM top dose (Example 2: top dose of 30 μM)
Sequence of NLRP3 (Q96P20 whole entry): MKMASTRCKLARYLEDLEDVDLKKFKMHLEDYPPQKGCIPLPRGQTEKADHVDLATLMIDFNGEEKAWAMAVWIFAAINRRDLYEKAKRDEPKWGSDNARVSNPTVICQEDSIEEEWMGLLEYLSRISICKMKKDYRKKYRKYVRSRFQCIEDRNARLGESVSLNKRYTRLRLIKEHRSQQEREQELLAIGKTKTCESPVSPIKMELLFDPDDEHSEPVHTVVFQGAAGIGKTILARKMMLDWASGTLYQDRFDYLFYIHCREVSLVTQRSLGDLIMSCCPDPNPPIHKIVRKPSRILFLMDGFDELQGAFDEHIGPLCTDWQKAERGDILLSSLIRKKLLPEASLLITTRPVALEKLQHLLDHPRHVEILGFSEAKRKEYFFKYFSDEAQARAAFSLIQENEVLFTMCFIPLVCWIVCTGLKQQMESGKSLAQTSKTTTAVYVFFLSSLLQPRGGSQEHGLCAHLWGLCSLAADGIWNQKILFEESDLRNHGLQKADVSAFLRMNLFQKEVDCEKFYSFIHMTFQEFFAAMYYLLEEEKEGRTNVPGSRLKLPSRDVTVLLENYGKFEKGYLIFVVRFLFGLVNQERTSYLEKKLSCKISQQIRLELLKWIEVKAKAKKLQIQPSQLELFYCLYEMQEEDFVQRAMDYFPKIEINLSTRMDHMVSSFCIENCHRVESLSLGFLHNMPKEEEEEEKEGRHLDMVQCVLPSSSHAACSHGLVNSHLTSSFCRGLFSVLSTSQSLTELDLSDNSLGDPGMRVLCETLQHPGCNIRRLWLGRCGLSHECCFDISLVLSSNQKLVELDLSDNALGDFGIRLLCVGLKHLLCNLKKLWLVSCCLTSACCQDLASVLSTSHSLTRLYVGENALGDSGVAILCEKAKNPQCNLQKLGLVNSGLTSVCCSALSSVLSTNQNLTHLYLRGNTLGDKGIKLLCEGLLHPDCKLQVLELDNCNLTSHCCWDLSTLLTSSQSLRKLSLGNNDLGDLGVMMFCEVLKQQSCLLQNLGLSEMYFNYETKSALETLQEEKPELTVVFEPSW
In short: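 THP-1 cells (25,000/well) primed with 1 μg/ml LPS in serum-free RPMI, treated with compound (8-point dilution, 10 μM top unless stated; 0.1% DMSO) 3 h at 37°C, then nigericin 5 μM 1 h. Viability read by resazurin (100 μM, 1-2 h) fluorescence; IC50 from 4-parameter fit.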

PK, oral administration = assay type: in vivo, male Sprague Dawley rats; details: male, Sprague Dawley, plasma, rat, 3 mg/kg
Protocol: Pharmacokinetic parameters were determined in male Sprague Dawley rats (Vital River Laboratory Animal Technology Co Ltd, Beijing, China, 6-9 weeks old). Animals were maintained under a 12 h light/dark cycle. Animals had free access to food and water, except that orally dosed animals were food deprived overnight prior to the study.
For intravenous administration, compounds were formulated as a solution (in DMSO:water [10:90] or in DMSO:PBS [10:90]) in 2 mL/kg dosing volume and administered via tail vein. For oral administration, compounds were formulated as a solution (in 0.5% methylcellulose in water) in […] dosing volume and administered orally.
Serial blood samples (about 200 μL) were taken from each animal at each of 8 time-points post dose ([…], 0.25, 0.5, 1, 2, 4, 8 and 24 h). Samples were held on ice for no longer than 30 minutes before centrifugation (5,696 rpm (3,000 g) for 15 minutes) for plasma generation. Plasma was frozen on dry ice prior to bioanalysis. PK parameters were generated from LC-MS/MS data using Phoenix WinNonlin 6.3 software.

[1] = PK, intravenous administration; assay type: in vivo; details: rat, plasma, male Sprague Dawley rats, dose about 1 mg/kg
In short: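 Male Sprague Dawley rats (6-9 weeks); IV dosing via tail vein as solution in DMSO:water or DMSO:PBS (10:90), oral dosing in 0.5% methylcellulose after overnight fasting. Plasma sampled at 8 time-points to 24 h; parameters derived from LC-MS/MS data.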

| Compound | NLRP3 inhibition (NLRP3 inflammasome) | pIC50 (NLRP3) | AUC (PK, oral administration) [ng·h/mL] | CL/F (PK, oral administration) [mL/min/kg] | Cmax (PK, oral administration) [ng/mL] | Tmax (PK, oral administration) [min] | bioavailability (PK, oral administration) [%] | half-life (PK, oral administration) [min] | AUC [1] [ng·h/mL] | clearance [1] [mL/min/kg] | half-life [1] [min] | Vd ([1]; read-out: Vdss) [L/kg] |
| --- | --- | --- | --- | --- | --- | --- | --- | --- | --- | --- | --- | --- |
| O=[N+]([O-])C=Cc1ccc2c(c1)OCO2 [3,4-methylenedioxy-β-nitrostyrene] | limited potency | – | – | – | – | – | – | – | – | – | – | – |
| CN(C)Cc1ccc(S(=O)(=O)c2nnc(Nc3c4c(cc5c3CCC5)CCC4)[nH]2)cc1 [Example 43, 5-((4-((dimethylamino)methyl)phenyl)sulfonyl)-N-(1,2,3,5,6,7-hexahydro-s-indacen-4-yl)-4H-1,2,4-triazol-3-amine] | – | ≥ 6.00 | 878 | 61.5 | 594 | 15 | 48.6 | 72 | 602 | 28 | 42 | 0.66 |
| C[S+](C)[O-] [dimethyl sulfoxide] | limited potency | – | – | – | – | – | – | – | – | – | – | – |
